Molecules are shown by their SMILES.

Drawing on patent publication US7956074B2, “Aryl-isoxazolo-4-yl-oxadiazole derivatives” (Hoffman-La Roche Inc., priority 2005, dated 2011), this text covers Ki for 26 compounds.

This experiment concerns the target T1, GABA A receptor α5β3γ2 (Homo sapiens, UniProt P18507+P31644).
T1 construct: expressed in transfected cells; host or cells: HEK293 cells, transiently transfected; membranes prepared
Kind of experiment: [3H]flumazenil competition binding, human GABA A α5β3γ2. The conditions noted are these: competition for [3H]flumazenil (0.5 nM) binding, HEK293 cells expressing human (transiently transfected) α5β3γ2; means of two determinations; read-out: Ki[nM] hα5. In short, it runs like this:
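HEK293 membranes expressing GABA-A receptors (human transiently, rat stably transfected) were used for [3H]flumazenil competition in Krebs-tris buffer, pH 7.5. Incubation ran 1 h at 4 °C to equilibrium, followed by filtration and scintillation counting. Ki values are means of two determinations.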

For the compound `COc1cc(-n2ccnc2)ccc1-c1nnc(-c2c(-c3ccccc3)noc2C)o1` [Example 33, 2-(4-Imidazol-1-yl-2-methoxy-phenyl)-5-(5-methyl-3-phenyl-isoxazol-4-yl)-[1,3,4]oxadiazole], the Ki amounted to 7.5 nM.
As for `COc1cc(N)ccc1-c1nnc(-c2c(-c3ccccc3)noc2C)o1` [Example 13, 3-Methoxy-4-[5-(5-methyl-3-phenyl-isoxazol-4-yl)-[1,3,4]oxadiazol-2-yl]-phenylamine], the figure is 7.5 nM; as for `COCCNc1ccc(-c2nnc(-c3c(-c4ccccc4)noc3C)o2)c(OC)c1` [Example 124, (2-Methoxy-ethyl)-{3-methoxy-4-[5-(5-methyl-3-phenyl-isoxazol-4-yl)-[1,3,4]oxadiazol-2-yl]-phenyl}-amine], 8.2 nM; as for `Cc1onc(-c2ccccc2)c1-c1nnc(-c2ccc(N)nc2)o1` [Example 48, 5-[5-(5-Methyl-3-phenyl-isoxazol-4-yl)-[1,3,4]oxadiazol-2-yl]-pyridin-2-ylamine], 38.9 nM.
Next, `COc1cc(F)ccc1-c1nnc(-c2c(-c3ccccc3)noc2C)o1` [Example 24, 2-(4-Fluoro-2-methoxy-phenyl)-5-(5-methyl-3-phenyl-isoxazol-4-yl)-[1,3,4]oxadiazole]: 39.6 nM; `Cc1onc(-c2ccccc2)c1-c1nnc(-c2ccc(F)cc2)o1` [Example 36, 2-(4-Fluoro-phenyl)-5-(5-methyl-3-phenyl-isoxazol-4-yl)-[1,3,4]oxadiazole]: 134 nM.
Next, `COc1cc(N2CCOCC2)ccc1-c1nnc(-c2conc2-c2ccccc2)o1` [Example 95, 4-{3-Methoxy-4-[5-(3-phenyl-isoxazol-4-yl)-[1,3,4]oxadiazol-2-yl]-phenyl}-morpholine]: 44.5 nM; `Cc1onc(-c2ccccc2)c1-c1nnc(-c2ccncc2)o1` [Example 40, 4-[5-(5-Methyl-3-phenyl-isoxazol-4-yl)-[1,3,4]oxadiazol-2-yl]-pyridine]: 179 nM.
Take `Cc1onc(-c2ccccc2)c1-c1nnc(-c2ccccc2OC(F)(F)F)o1` [Example 43, 2-(5-Methyl-3-phenyl-isoxazol-4-yl)-5-(2-trifluoromethoxy-phenyl)-[1,3,4]oxadiazole]: the inhibition constant (Ki) was 131 nM.
As for `COc1cc(N2CCS(=O)(=O)CC2)c(F)cc1-c1nnc(-c2c(-c3ccccc3)noc2C)o1` [Example 117, 4-{2-Fluoro-5-methoxy-4-[5-(5-methyl-3-phenyl-isoxazol-4-yl)-[1,3,4]oxadiazol-2-yl]-phenyl}-thiomorpholine 1,1-dioxide], the Ki was determined as 2 nM.
For `Cc1onc(-c2ccccc2)c1-c1nnc(-c2ccc3c(c2)n(C)c(=O)n3C)o1` [Example 51, 1,3-Dimethyl-5-[5-(5-methyl-3-phenyl-isoxazol-4-yl)-[1,3,4]oxadiazol-2-yl]-1,3-dihydro-benzoimidazol-2-one], the Ki is 128 nM.
As for `COc1cc(N2CCOCC2)ccc1-c1nnc(-c2c(-c3ccc(Cl)cc3)noc2C)o1` [Example 109, 4-(4-{5-[3-(4-Chloro-phenyl)-5-methyl-isoxazol-4-yl]-[1,3,4]oxadiazol-2-yl}-3-methoxy-phenyl)-morpholine], the figure is 2.2 nM; as for `Cc1onc(-c2ccccc2)c1-c1nnc(-c2cccc(S(C)(=O)=O)c2)o1` [Example 31, 2-(3-Methanesulfonyl-phenyl)-5-(5-methyl-3-phenyl-isoxazol-4-yl)-[1,3,4]oxadiazole], 199 nM.
As for `COc1cc(N2CCOCC2)ccc1-c1nnc(-c2c(-c3ccc(C)cc3)noc2C)o1` [Example 104, 4-(3-Methoxy-4-{5-[5-methyl-3-(4-methyl-phenyl)-isoxazol-4-yl]-[1,3,4]oxadiazol-2-yl}-phenyl)-morpholine], the figure is 12.1 nM; as for `Cc1onc(-c2ccccc2)c1-c1nnc(-c2cc(F)c(F)cc2F)o1` [Example 118, 2-(5-Methyl-3-phenyl-isoxazol-4-yl)-5-(2,4,5-trifluoro-phenyl)-[1,3,4]oxadiazole], 149 nM; as for `COc1cc(NC2CCOCC2)ccc1-c1nnc(-c2c(-c3ccccc3)noc2C)o1` [Example 64, {3-Methoxy-4-[5-(5-methyl-3-phenyl-isoxazol-4-yl)-[1,3,4]oxadiazol-2-yl]-phenyl}-(tetrahydro-pyran-4-yl)-amine], 4.2 nM.
On to `COc1cc(NCCS(C)(=O)=O)c(F)cc1-c1nnc(-c2c(-c3ccccc3)noc2C)o1` [Example 127, {2-Fluoro-5-methoxy-4-[5-(5-methyl-3-phenyl-isoxazol-4-yl)-[1,3,4]oxadiazol-2-yl]-phenyl}-(2-methanesulfonyl-ethyl)-amine], for which the Ki is 1.7 nM.
On to `COc1cc(N2CCOCC2)ccc1-c1nnc(-c2c(-c3cccc(Cl)c3)noc2C)o1` [Example 94, 4-(4-{5-[3-(3-Chloro-phenyl)-5-methyl-isoxazol-4-yl]-[1,3,4]oxadiazol-2-yl}-3-methoxy-phenyl)-morpholine], for which the Ki stood at 19.3 nM.
Regarding `Cc1onc(-c2ccccc2)c1-c1nnc(-c2ccc(C#N)cc2)o1` [Example 57, 4-[5-(5-Methyl-3-phenyl-isoxazol-4-yl)-[1,3,4]oxadiazol-2-yl]-benzonitrile], the Ki was determined as 84.2 nM.
Next, `COc1cc(NCCN2CCCC2=O)c(F)cc1-c1nnc(-c2c(-c3ccccc3)noc2C)o1` [Example 128, 1-(2-{2-Fluoro-5-methoxy-4-[5-(5-methyl-3-phenyl-isoxazol-4-yl)-[1,3,4]oxadiazol-2-yl]-phenylamino}-ethyl)-pyrrolidin-2-one]: 4.2 nM.
As for `COc1cc(NCc2ccccn2)c(F)cc1-c1nnc(-c2c(-c3ccccc3)noc2C)o1` [Example 131, {2-Fluoro-5-methoxy-4-[5-(5-methyl-3-phenyl-isoxazol-4-yl)-[1,3,4]oxadiazol-2-yl]-phenyl}-pyridin-2-ylmethyl-amine], the figure is 21.2 nM; as for `Cc1onc(-c2ccccc2)c1-c1nnc(-c2ccc3[nH]cnc3c2)o1` [Example 27, 5-[5-(5-Methyl-3-phenyl-isoxazol-4-yl)-[1,3,4]oxadiazol-2-yl]-1H-benzoimidazole], 22.1 nM.
As for `COc1cc(N(C)C(=O)C2CC2)ccc1-c1nnc(-c2c(-c3ccccc3)noc2C)o1` [Example 17, Cyclopropanecarboxylic acid {3-methoxy-4-[5-(5-methyl-3-phenyl-isoxazol-4-yl)-[1,3,4]oxadiazol-2-yl]-phenyl}-methyl-amide], the figure is 48.8 nM.
Regarding `Cc1onc(-c2ccccc2)c1-c1nnc(-c2ccc(N3CCOCC3)cn2)o1` [Example 142, 4-{6-[5-(5-Methyl-3-phenyl-isoxazol-4-yl)-[1,3,4]oxadiazol-2-yl]-pyridin-3-yl}-morpholine], the Ki amounted to 17.2 nM.
Next, `COc1cc(N2CCOCC2)ccc1-c1nnc(-c2c(-c3ccccc3)noc2N2CCOCC2)o1` [Example 107, 4-{4-[5-(2-Methoxy-4-morpholin-4-yl-phenyl)-[1,3,4]oxadiazol-2-yl]-3-phenyl-isoxazol-5-yl}-morpholine]: 31.1 nM.
As for `COc1cc(N2CCOCC2)ccc1-c1nnc(-c2c(-c3cccc(F)c3)noc2C)o1` [Example 108, 4-(4-{5-[3-(3-Fluoro-phenyl)-5-methyl-isoxazol-4-yl]-[1,3,4]oxadiazol-2-yl}-3-methoxy-phenyl)-morpholine], the figure is 11.3 nM.
